Series [1] is described as follows: Solubility in water, filtrate content measured by HPLC. Format: physicochemical. Conditions: for solubility at 10 h: water, 25 °C, thermodynamic from solid. How it is done: High Performance Liquid Chromatogram (HPLC) analysis data are collected from Agilent 1260 and the chemical workstation is B.04. The corresponding parameters are as follows: chromatographic column Eclipst XDB-C18, 5 μm, 4.6×250 mm, H-005#, column temperature 25° C., flow rate 0.3 ml/min, mobile phase 13% acetonitrile and 87% water (0.0025M ammonium bicarbonate), wavelength 254 nm, sample size 10 μL and operation duration 20 min.
In 100 mL of water was added 20.0 mg of Form I prepared in preparation example 1 or 20 mg of Form II prepared in example 1, and stirred for 10 hours at 25° C., filtered, the content of the filtrate was directly measured by HPLC.

Series [2] is described as follows: Isothermal adsorption curve (hygroscopicity). Format: physicochemical. The following applies: for hygroscopicity (in words): isothermal adsorption curve. On the procedure:
The Isothermal Adsorption Curve data are collected by TA Instruments Q5000 TGA. The instrument control software is Thermal Advantage and the analysis software is Universal Analysis. Generally, take 1 to 10 mg of the sample and place it in a platinum pan, and record weight changes of the sample during the course of the relative humidity changing from 0% to 80% then to 0%. Depending on samples, different adsorption and desorption steps may be used.

Series [3] is described as follows: Stability test under high temperature and bright light, HPLC purity. The format is physicochemical. The following applies: for Change in value of maximum individual impurity content: increase. How it is done:
High Performance Liquid Chromatogram (HPLC) analysis data are collected from Agilent 1260 and the chemical workstation is B.04. The corresponding parameters are as follows: chromatographic column […] XDB-C18, 5 μm, 4.6×250 mm, H-005#, column temperature 25° C., flow rate 0.3 ml/min, mobile phase 13% acetonitrile and 87% water (0.0025M ammonium bicarbonate), wavelength 254 nm, sample size 10 μL and operation duration 20 min. Form I of TR-701FA prepared in preparation example 1 and Form II of TR-701FA of the present invention were compared in the stability test by being stored for 10 days under conditions of high temperature and bright light. The high temperature was 80° C. and the light was 6,000 lx. HPLC purities and maximum individual impurity contents of the compounds were tested before and after the storage, and the results were shown in Table 3.

Series [4] is described as follows: Storage stability at 25° C. and 60% RH. The format is physicochemical. Conditions: stored for 6 months at 25° C. and 60% RH.
The conditions of series [5]: cited from earlier work.
For series [6] the following is noted: aqueous solution or acid solution; cited from earlier work.
[7] abbreviates: 0 day vs 10 days at 80° C. and 6,000 lx.
Where [8] appears, read: high temperature (80° C.) and lighting (6,000 lx) for 10 days.

In brackets after ≈: the same amount, converted by molar mass. Where two headings read alike, the source gives them in different places.

For `Cn1nnc(-c2ccc(-c3ccc(N4C[C@H](COP(=O)(O)O)OC4=O)cc3F)cn2)n1` [Form I of TR-701FA, (R)-3-(4-(2-(2-methyltetrazol-5-yl)pyridine-5-yl)-3-fluorophenyl)-5-hydroxymethyl oxazolidin-2-onedihydrogenphosphate], the “solubility in water (in words)” value in series [1] is “low solubility in water”. In addition, the solubility at 10 h in series [1] (stirred 10 hours at 25° C. (room temperature), filtrate by HPLC, read-out: solubility in water) turned out to be 118 µg/mL (≈ 262 µM). Also, the “hygroscopicity (in words)” value in series [2] is recorded as “high hygroscopicity”. The “weight change on isothermal adsorption curve” value in series [2] (relative humidity range of 20% to 80% RH) is reported as “approximately 1.56%”. Besides, the HPLC purity in series [3] (0 day) was 98.7%; in series [3] (setting [8]), 96.6%. Besides, the “Maximum individual impurity content” value in series [3] (0 day) is listed as 1.3%; in series [3] (setting [8]), 2.5%. Also, in series [3] (setting [7]), the “Change in value of maximum individual impurity content” value worked out at 1.2%. Also, the “Change in value of HPLC purity” value in series [3] (0 day vs 10 days at 80° C. and 6,000 lx, positive = decrease) was 2.1%.
On to `Cn1nnc(-c2ccc(-c3ccc(N4C[C@H](COP(=O)(O)O)OC4=O)cc3F)cn2)n1` [Form II of TR-701FA, (R)-3-(4-(2-(2-methyltetrazol-5-yl)pyridine-5-yl)-3-fluorophenyl)-5-hydroxymethyl oxazolidin-2-onedihydrogenphosphate], for which the solubility at 10 h in series [1] (at room temperature, read-out: water solubility) is 168 µg/mL (≈ 373 µM). Besides, the “hygroscopicity (in words)” value in series [2] is on record as “lower hygroscopicity than the known Form I”. The “purity and crystalline form after storage” value in series [4] is reported as “remain unchanged”. Besides, in series [3] (0 day), the HPLC purity was determined as 98.3% and the “Maximum individual impurity content” value amounted to 1.6%. The “Change in value of maximum individual impurity content” value in series [3] (setting [7]) came out at 0.1%. Further, in series [3] (setting [8]), the HPLC purity stood at 98.4% and the “Maximum individual impurity content” value was determined as 1.7%.
In the case of `Cn1nnc(-c2ccc(-c3ccc(N4C[C@H](COP(=O)(O)O)OC4=O)cc3F)cn2)n1` [TR-701FA, (R)-3-(4-(2-(2-methyltetrazol-5-yl)pyridine-5-yl)-3-fluorophenyl)-5-hydroxymethyl oxazolidin-2-onedihydrogenphosphate], the “solubility relative to tedizolid (in words)” value in series [5] is “better solubility than tedizolid”. Also, the “stability in solution (in words)” value in series [6] is “stable in aqueous solution or acid solution”.

Broadly, the solubility is the dissolved amount per volume that the medium holds.
